What was measured:
Assay type in all cases: biochemical
[1] = molecular target: OleD P67T/I112K/A242V (Streptomyces antibioticus, UniProt Q53685, A242V/I112K/P67T); experiment: Specific activity with novobiocic acid as acceptor and UDP-Glc; details: UDP-Glc donor
Experimental: (§1) Determination of specific activity with 1 or 4 as acceptor. Enzyme reactions were carried out in a total volume of 100 μl/50 mM Tris-HCl (pH8.0) containing 5 mM MgCl2, 200 μM (FIG. 9: 1) or (FIG. 9: 4), 5 mM (FIG. 12: 5), and typically 10-50 μg pure enzyme. At a suitable time interval during which rate of product formation was linear with time (typically 2-20 min), reactions were quenched with 100 μl MeOH, and the samples centrifuged at 10,000 g for 10 min. Supernatants were analyzed by analytical reverse-phase HPLC with a Gemini 5μ C18 column (Phenomenex) using a gradient of 10-90% CH3CN in 0.1% trifluoroacetic acid (TFA)/H2O in 20 min, with detection at 254 nm. […] The identity of (FIG. 9: 7) was confirmed by LC-MS and NMR while the […] of glucoside (FIG. 9: 6) was confirmed by co-elution with a commercial standard and LC-MS analysis. HPLC peak areas were integrated, and the product concentrations calculated as a percent of the total peak area. Specific activity was expressed as nmols product formed/min/mg protein.

[2] = molecular target: T1, OleD P67T/S132F/A242V (Streptomyces antibioticus, UniProt Q53685, A242V/P67T/S132F); experiment: as above; details: UDP-Glc donor
T1 construct: made in house; host or cells: E. coli (site-directed mutant of pET28/OleD)
Experimental: as §1

[3] = molecular target: T2, WT OleD (Streptomyces antibioticus, UniProt Q53685, P55A/R82V/R83E/T84P); experiment: Fluorescence-based glycosyltransferase assay in E. coli crude cell extracts
T2 construct: made in house; host or cells: E. coli BL21(DE3)pLysS, plasmid pET28/OleD
Experimental: Individual colonies were used to inoculate wells of a 96-deep well microtitre plate wherein each well contained 1 ml of LB medium supplemented with 50 μg/ml kanamycin. Culture plates were tightly sealed with AeraSeal™ breathable film (Research Products International Corp.). After cell growth at 37° C. for 18 h with shaking at 350 rpm, 100 μl of each culture was transferred to a fresh deep-well plate containing 1 ml of LB medium supplemented with 50 μg/ml kanamycin. The original plate was sealed and stored at 4° C., or a glycerol copy made by mixing 100 μl of each culture with 100 µl 50% (v/v) glycerol and storing at −80° C. The freshly inoculated plate was incubated at 37° C. for 2-3 h with shaking at 350 rpm. […]
For the assay, cleared supernatant was mixed with an equal volume (501) of 50 mM Tris-HCl (pH 8.0) containing 10 mM MgCl2, 0.2 mM 4-Me-umb (FIG. 1: 4), and 1.0 mM UPDG (FIG. 3: 2) using a Biomek FX Liquid Handling Workstation (Beckman Coulter, Fullerton, Calif.). Upon mixing, the fluorescence at excitation 350 nm and emission 460 nm was measured using a FLUOstar Optima plate reader (BMG Labtechnologies, Durham, N.C.) and the reactions incubated for 4 h at 30° C., at which time the fluorescence measurement was repeated. Activity of the clones was expressed as the difference in fluorescence intensity between 0 h and 3 h.

[4] = molecular target: T1, OleD P67T/S132F/A242V
Experimental: Kinetic parameters kcat and Km were determined with both 4-Me-umb FIG. 1: 4 and UPDG as variable substrates using assay conditions as described above. […] Each experiment was performed in triplicate. Initial velocities were fitted to the Michaelis-Menten equation using Sigma Plot.
Enzyme assays were carried out in a total volume of 500 μl 50 mM Tris-HCl (pH 8.0) containing 5 mM MgCl2, and 50 μg pure enzyme. Kinetic parameters kcat and Km were determined with both 4-Me-umb FIG. 1: 4 and UPDG (FIG. 3: 2) as variable substrates. […] Each experiment was performed in triplicate. Initial velocities were fitted to the Michaelis-Menten equation using Sigma Plot.

SMILES	improvement in specific activity, P67T/I112K/A242V over P67T/S132F/A242V [1]	improvement, P67T/I112K/A242V over the parent P67T/I112T/A242V ([1]; purified enzymes)	improvement in glucosylation activity, P67T/S132F/A242V compared to WT OleD [2]	activity in E. coli pET28/OleD crude cell extracts versus extracts not over-expressing OleD [3] [fold]	kcat ([4]; acceptor 4 varied) [s⁻¹]	efficiency of glucosylation compared to the WT enzyme ([4]; kcat/Km, unnatural acceptor 4-methyl-umbelliferone) [fold]	Km ([4]; read-out: apparent Km, named substrate varied, other substrate fixed) [µM]
CC(C)=CCc1cc(C(=O)Nc2c(O)c3ccc(O)c(C)c3oc2=O)ccc1O [novobiocic acid (29), novobiocic acid]	twenty-eight	seven	five-fold				
Cc1cc(=O)oc2cc(O)ccc12 [4-Me-umb (4), 7-hydroxy-4-methylcoumarin]				~2	0.0247	~60	140
